Measurements published in patent publication US20190210969A1, “INTRAESOPHAGEAL ADMINISTRATION OF TARGETED NITROXIDE AGENTS FOR PROTECTION AGAINST IONIZING IRRADIATION-INDUCED ESOPHAGITIS” (University of Pittsburgh - Of the Commonwealth System of …, priority 2010, published 2019).

Key:
[1] = test system: KM101 human marrow stromal cells; experiment: Irradiation survival of KM101 marrow stromal cells (colony assay); assay type: cell-based; conditions: for n (shoulder): 0 to 6 Gy
Protocol: FIG. 7 is a graph showing that JP4-039 is an effective mitigator of irradiation damage to KM101 human marrow stromal cells. KM101 cells were incubated in media alone or in JP4-039 ([…]) for one hour before irradiation or 24 hours after irradiation. The cells were irradiated to doses ranging from 0 to 6 Gy and plated in 4 well plates. Seven days later the cells were stained with crystal violet and colonies of greater than 50 cells counted. Cells incubated in JP4-039 either before or after irradiation were more radioresistant as shown by an increased shoulder of n=2.3±0.2 or 2.2±0.2, respectively compared to n of 1.1±0.1 for the KM101 cells (p=0.0309 or 0.0386, respectively).

[2] = Clearance of intravenously injected JP4-039 measured by EPR; assay type: in vivo, mouse; set-up: dose or concentration left out as unconfirmed
Source text: FIGS. 13A-13B. Pharmacokinetics of clearance of JP4-039 intravenously injected into C57BL/6JHNsd mice in (FIG. 13A) plasma and (FIG. 13B) lung. […] Serum samples were collected and assayed. Each symbol represents an individual mouse. The methods for assay of nitroxide by EPR have been published previously (Borisenko G G, et al. J Am Chem Soc 4(30): 9221-9232, 2004 and Jiang J, et al. A mitochondria-targeted triphenylphosphonium-conjugated nitroxide functions as a radioprotector/mitigator. Radiat Res 172(6): 706-717, 2009).
Measurement of JP4-039 nitroxide in serum and in tissues by electron paramagnetic resonance. Electron paramagnetic resonance (EPR) spectra of nitroxide radicals in cells or in mitochondrial fractions were recorded after mixing with acetonitrile (1:1 v/v) after 5 min incubation with 2 mM K3Fe(CN)6 using a JEOL-RE1XEPR spectrometer (JEOL, USA, Inc., Peabody, Mass., USA) under the following conditions: 3350 G center field, 25 G scan range, 0.79 G field modulation, 20 mW microwave power, 0.1 s time constant, 4 min scan time. Under these experimental conditions, nitroxides were not detectably oxidized by […] to EPR-silent oxoamminium cations. Mitochondria-enriched fractions were obtained by differential centrifugation. […] Partitioning efficiency was calculated as a percentage of the initial signal. […] After that, samples were centrifuged at 10,000 g for 5 min, and the pellets washed twice with the incubation buffer and analyzed by EPR as described previously (Borisenko G G, et al. Nitroxides scavenge myeloperoxidase-catayzed thiyl radicals in model systems and in cells. J Am Chem Soc 4(30): 9221-9232, 2004 and Jiang J, et al. A mitochondria-targeted triphenylphosphonium-conjugated nitroxide functions as a radioprotector/mitigator. Radiat Res 172(6): 706-717, 200938-39).
Intravenous JP4-039 systemic pharmacokinetics and intraesophageal formulation mediated delivery to esophagus. […] JP4-039 was cleared from plasma by 10 min, but was detected in lung (and intestine) for over 30 minutes.

[3] = JP4-039 uptake in normal tissue and orthotopic tumors after intraesophageal administration (EPR); assay type: in vivo, mouse
Protocol: Lastly, to determine whether JP4-039 was taken up by other tissue, esophagus, lung orthotopic tumor, liver, and peripheral blood samples were taken 10, 30, and 60 minutes after intraesophageal administration of the compound. Samples were snap-frozen on dry ice and JP4-039 content was quantified by EPR analysis.
To determine if the orally-administered JP4-039 also reached other tissues and orthotopic tumors, esophagus, peripheral blood, bone marrow, liver, and 3LL orthotopic tumors were harvested at 10, 30, and 60 minutes after intraesophageal administration of JP4-039, followed by quantification by EPR. […] JP4-039 levels in peripheral blood and orthotopic tumor peaked at 30 minutes at 51.1 and 276.0 pmol/mg protein, respectively. […] Lower levels of JP4-039 were detected in bone marrow up to 60 minutes after drug swallow compared to levels in liver and tumor tissue.

[4] = test system: Lewis lung carcinoma cells (3LL); experiment: Irradiation of mice with orthotopic 3LL lung tumors; assay type: in vivo, mouse
Source text: A separate group of mice received intratracheal administration of 1×10^6 Lewis lung carcinoma cells (3LL) seven days prior to administration of JP4-039, followed immediately by excision of lung tissue to calculate JP4-039 uptake by cancer cells.
This dose of irradiation was chosen to reduce tumor growth but was below the level required for lethal esophagitis. […] Control tumor-bearing mice received no irradiation.

[5] = intraesophageal, F15 formulation

SMILES: CC(C)C[C@@H](/C=C/CC(=O)NC1CC(C)(C)N([O])C(C)(C)C1)NC(=O)OC(C)(C)C [JP4-039, TEMPO-4-yl-(S,E)-5-(tert-butoxycarbonylamino)-7-methyloct-3-enamide]
- n (shoulder) ([1]; 24 hours after irradiation, KM101 alone 1.1±0.1, p=0.0386): 2.2±0.2
- Do ([1]; before or after irradiation vs media alone): no significant change
- n (shoulder) ([1]; for one hour before irradiation, KM101 alone 1.1±0.1, p=0.0309): 2.3±0.2
- time detected in intestine [2]: over 30 minutes
- time detected in lung [2]: over 30 minutes
- time by which cleared from plasma ([2]; intravenous in 100 μl): ≤ 10 min
- time of peak level in liver [3, 5]: 10 min
- time of peak level in orthotopic tumor [3, 5]: 30 min
- time of peak level in peripheral blood [3, 5]: 30 min
- peak JP4-039 level in orthotopic tumor ([3]; intraesophageal, F15 formulation, 3LL tumor, at 30 minutes, EPR): 276.0 pmol/mg protein
- peak JP4-039 level in liver ([3]; intraesophageal, F15 formulation, at 10 minutes, EPR): 122/2
- peak JP4-039 level in peripheral blood ([3]; intraesophageal, F15 formulation, at 30 minutes, EPR): 51.1 pmol/mg protein
- JP4-039 level in bone marrow compared to liver and tumor tissue ([3]; up to 60 minutes after drug swallow): Lower levels
- protection of orthotopic 3LL cells from irradiation ([4]; 4 μg in 110 μl F15, 10 minutes before 0 or 15 Gy upper-body irradiation): did not protect 3LL cells from irradiation
- survival of 3LL tumor-bearing mice compared to F15 alone ([4]; prior to 20 Gy thoracic irradiation, p=0.3693): did not survive significantly differently
